The values below come from patent US20260022143A1, “Cyclic Peptide Inhibitors of IL-23” (JANSSEN PHARMACEUTICA NV, priority 2022, published 2026).

Structures are written as SMILES. Starred links: 1 amine or outer side, 2 acyl side, 3 side chain; linkers in the order of their positions; H or OH if unused. Positions of bridges follow the written chain, without caps; N, C: chain ends. Non-standard residues stand in square brackets, D forms with d. Residues, ends and D or L forms follow the SMILES beside them. *: point of attachment. X33 = C[N+](C)(C)CCCCc1cn(-c2ccc(C[C@H](N[*:1])C(=O)[*:2])cc2)nn1; Me3N+(CH2)2O(CH2)2O(CH2)2CO = C[N+](C)(C)CCOCCOCCC(=O)*; X67 = COCc1cn(-c2ccc(C[C@H](N[*:1])C(=O)[*:2])cc2)nn1; Trp(7-Me) = Cc1cccc2c(C[C@H](N)C(=O)O)c[nH]c12; Lys(Me3) = C[N+](C)(C)CCCC[C@H](N)C(=O)O; 2Nal = N[C@@H](Cc1ccc2ccccc2c1)C(=O)O; 3Pal = N[C@@H](Cc1cccnc1)C(=O)O; Lys(Me) = CNCCCC[C@H](N)C(=O)O; Pen = CC(C)(S)[C@H](N)C(=O)O; X70 = C[N+](C)(C)CCO/N=C\C*; X85 = C[N+](C)(C)CCO/N=C/C*; Thp = NC1(C(=O)O)CCOCC1; X3 = C[N+](C)(C)CCCCC*; Me2NCH2CH2 = CN(C)CC*; Sar = CNCC(=O)O

This data set in a line: Exposed Polar Surface Area (EPSA). In kind it is physicochemical. The note with it: SFC on Chirex 3014 column; sample 1 mM DMSO stock; read-out: EPSA. The method, boiled down:
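EPSA, in Å^2, is read from SFC retention time through a linear relationship established with eight calibration standards. Separation uses a Chirex 3014 stationary phase, 35 °C, 14 MPa back pressure, and a 5–60% methanol/ammonium formate modifier gradient in CO2.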
For the compound `CC(=O)N(C)CCCC[C@@H]1NC(=O)[C@H](Cc2c[nH]c3c(C)cccc23)NC(=O)[C@H]([C@@H](C)O)NC(=O)[C@H](CC(=O)N(C)C)NC(=O)[C@@H](NC(=O)CCOCCOCC[N+](C)(C)C)C(C)(C)SSC(C)(C)[C@@H](C(=O)N[C@@H](Cc2ccc(-n3cc(CCCC[N+](C)(C)C)nn3)cc2)C(=O)N[C@@H](Cc2ccc3ccccc3c2)C(=O)NC2(C(=O)N[C@@H](CCCCN(C)C(C)=O)C(=O)N[C@@H](CC(N)=O)C(=O)N[C@@H](Cc3cccnc3)C(=O)N(C)CC(=O)N(C)C)CCOCC2)NC1=O` [compound 302, cPEG3aCO-Pen(3)-N(N(Me)2)-T-7MeW-K(NMeAc)-Pen(3)-F(4TzlTMA4)-] ({Me3N+(CH2)2O(CH2)2O(CH2)2CO}-[Pen]D(NMe2)T[Trp(7-Me)][Lys(Me)](Ac)[Pen][X33][2Nal][Thp][Lys(Me)](Ac)N[3Pal][Sar]-NMe2; disulfide 1-6), the EPSA came out at 155 A^2.
On to `COCc1cn(-c2ccc(C[C@H](NC(=O)[C@H]3NC(=O)[C@H](CCCCN(C)C(C)=O)NC(=O)[C@H](Cc4c[nH]c5c(C)cccc45)NC(=O)[C@H]([C@@H](C)O)NC(=O)[C@H](CC(=O)N(C)C)NC(=O)[C@@H](NC(=O)CCOCCOCC[N+](C)(C)C)C(C)(C)SSC3(C)C)C(=O)N[C@@H](Cc3ccc4ccccc4c3)C(=O)NC3(C(=O)N[C@@H](CCCCN(C)C(C)=O)C(=O)N[C@@H](CC(N)=O)C(=O)N[C@@H](Cc4cccnc4)C(=O)N(C)CC(=O)N(C)C)CCOCC3)cc2)nn1` [compound 303, cPEG3aCO-Pen(3)-N(N(Me)2)-T-7MeW-K(NMeAc)-Pen(3)-F(4TzlMME)-2Nal-THP-K(NMeAc)-N-3Pya-Sar-CON(Me)2] ({Me3N+(CH2)2O(CH2)2O(CH2)2CO}-[Pen]D(NMe2)T[Trp(7-Me)][Lys(Me)](Ac)[Pen][X67][2Nal][Thp][Lys(Me)](Ac)N[3Pal][Sar]-NMe2; disulfide 1-6), for which the EPSA was found to be 152 A^2.
Then `CC(=O)N(C)CCCC[C@@H]1NC(=O)[C@H](Cc2c[nH]c3c(C)cccc23)NC(=O)[C@H]([C@@H](C)O)NC(=O)[C@H](CC(=O)N(C)C)NC(=O)[C@@H](NC(=O)CCOCCOCC[N+](C)(C)C)C(C)(C)SSC(C)(C)[C@@H](C(=O)N[C@@H](Cc2ccc(OC/C=N/OCC[N+](C)(C)C)cc2)C(=O)N[C@@H](Cc2ccc3ccccc3c2)C(=O)NC2(C(=O)N[C@@H](CCCCN(C)C(C)=O)C(=O)N[C@@H](CC(N)=O)C(=O)N[C@@H](Cc3cccnc3)C(=O)N(C)CC(=O)N(C)C)CCOCC2)NC1=O` [compound 305, cPEG3aCO-Pen(3)-N(N(Me)2)-T-7MeW-K(NMeAc)-Pen(3)-Y(OEOXlMECh)-2Nal-THP-K(NMeAc)-N-3Pya-Sar-CON(Me)2] ({Me3N+(CH2)2O(CH2)2O(CH2)2CO}-[Pen]D(NMe2)T[Trp(7-Me)][Lys(Me)](Ac)[Pen]Y(X85)[2Nal][Thp][Lys(Me)](Ac)N[3Pal][Sar]-NMe2; disulfide 1-6 (inferred)), with 153 A^2; and `CC(=O)N(C)CCCC[C@@H]1NC(=O)[C@H](Cc2c[nH]c3c(C)cccc23)NC(=O)[C@H]([C@@H](C)O)NC(=O)[C@H](CC(=O)N(C)C)NC(=O)[C@@H](NC(=O)CCOCCOCC[N+](C)(C)C)C(C)(C)SSC(C)(C)[C@@H](C(=O)N[C@@H](Cc2ccc(OC/C=N\OCC[N+](C)(C)C)cc2)C(=O)N[C@@H](Cc2ccc3ccccc3c2)C(=O)NC2(C(=O)N[C@@H](CCCCN(C)C(C)=O)C(=O)N[C@@H](CC(N)=O)C(=O)N[C@@H](Cc3cccnc3)C(=O)N(C)CC(=O)N(C)C)CCOCC2)NC1=O` [compound 306, cPEG3aCO-Pen(3)-N(N(Me)2)-T-7MeW-K(NMeAc)-Pen(3)-Y(OZOXlMECh)-2Nal-THP-K(NMeAc)-N-3Pya-Sar-CON(Me)2] ({Me3N+(CH2)2O(CH2)2O(CH2)2CO}-[Pen]D(NMe2)T[Trp(7-Me)][Lys(Me)](Ac)[Pen]Y(X70)[2Nal][Thp][Lys(Me)](Ac)N[3Pal][Sar]-NMe2; disulfide 1-6), with 153 A^2.
The result for `CC(=O)N(C)CCCC[C@@H]1NC(=O)[C@H](Cc2c[nH]c3c(C)cccc23)NC(=O)[C@H]([C@@H](C)O)NC(=O)[C@H](CC(=O)N(C)C)NC(=O)[C@@H](NC(=O)CCOCCOCC[N+](C)(C)C)C(C)(C)SSC(C)(C)[C@@H](C(=O)N[C@@H](Cc2ccc(OCCCCC[N+](C)(C)C)cc2)C(=O)N[C@@H](Cc2ccc3ccccc3c2)C(=O)NC2(C(=O)N[C@@H](CCC(=O)N(C)C)C(=O)N[C@@H](CC(N)=O)C(=O)N[C@@H](Cc3cccnc3)C(=O)N(C)CC(=O)N(C)C)CCOCC2)NC1=O` [compound 310, cPEG3aCO-Pen(3)-N(N(Me)2)-T-7MeW-K(NMeAC)-Pen(3)-TMAPF-2Nal-THP-Q(N(Me)2)-N-3Pya-Sar-CON(Me)2] ({Me3N+(CH2)2O(CH2)2O(CH2)2CO}-[Pen]D(NMe2)T[Trp(7-Me)][Lys(Me)](Ac)[Pen]Y(X3)[2Nal][Thp]E(NMe2)N[3Pal][Sar]-NMe2; disulfide 1-6) reads 152 A^2; that for `CC(=O)N(C)CCCC[C@H](NC(=O)C1(NC(=O)[C@H](Cc2ccc3ccccc3c2)NC(=O)[C@H](Cc2ccc(OCCCCC[N+](C)(C)C)cc2)NC(=O)[C@H]2NC(=O)[C@H](CCC(=O)N(C)C)NC(=O)[C@H](Cc3c[nH]c4c(C)cccc34)NC(=O)[C@H]([C@@H](C)O)NC(=O)[C@H](CC(=O)N(C)C)NC(=O)[C@@H](NC(=O)CCOCCOCC[N+](C)(C)C)C(C)(C)SSC2(C)C)CCOCC1)C(=O)N[C@@H](CC(N)=O)C(=O)N[C@@H](Cc1cccnc1)C(=O)N(C)CC(=O)N(C)C` [compound 312, cPEG3aCO-Pen(3)-N(N(Me)2)-T-7MeW-Q(N(Me)2)-Pen(3)-TMAPF-2Nal-THP-K(NMeAC)-N-3Pya-Sar-CON(Me)2] ({Me3N+(CH2)2O(CH2)2O(CH2)2CO}-[Pen]D(NMe2)T[Trp(7-Me)]E(NMe2)[Pen]Y(X3)[2Nal][Thp][Lys(Me)](Ac)N[3Pal][Sar]-NMe2; disulfide 1-6), 151 A^2; that for `CC(=O)N(C)CCCC[C@@H]1NC(=O)[C@H](Cc2c[nH]c3c(C)cccc23)NC(=O)[C@H]([C@@H](C)O)NC(=O)[C@H](CC(=O)N(C)C)NC(=O)[C@@H](NC(=O)CCOCCOCC[N+](C)(C)C)C(C)(C)SSC(C)(C)[C@@H](C(=O)N[C@@H](Cc2ccc(OCCCCC[N+](C)(C)C)cc2)C(=O)N[C@@H](Cc2ccc3ccccc3c2)C(=O)NC2(C(=O)N[C@@H](C)C(=O)N[C@@H](CC(N)=O)C(=O)N[C@@H](Cc3cccnc3)C(=O)N(C)CC(=O)N(C)C)CCOCC2)NC1=O` [compound 316, cPEG3aCO-Pen(3)-N(N(Me)2)-T-7MeW-K(NMeAc)-Pen(3)-TMAPF-2Nal-THP-A-N-3Pya-Sar-CON(Me)2] ({Me3N+(CH2)2O(CH2)2O(CH2)2CO}-[Pen]D(NMe2)T[Trp(7-Me)][Lys(Me)](Ac)[Pen]Y(X3)[2Nal][Thp]AN[3Pal][Sar]-NMe2; disulfide 1-6), 154 A^2.
Then `CC(=O)NCCCC[C@@H]1NC(=O)[C@H](Cc2c[nH]c3c(C)cccc23)NC(=O)[C@H]([C@@H](C)O)NC(=O)[C@H](CC(N)=O)NC(=O)[C@@H](NC(=O)CCOCCOCC[N+](C)(C)C)C(C)(C)SSC(C)(C)[C@@H](C(=O)N[C@@H](Cc2ccc(OCCCCC[N+](C)(C)C)cc2)C(=O)N[C@@H](Cc2ccc3ccccc3c2)C(=O)NC2(C(=O)N[C@@H](C)C(=O)N[C@@H](CC(N)=O)C(=O)N[C@@H](Cc3cccnc3)C(=O)N(C)CC(=O)N(C)C)CCOCC2)NC1=O` [compound 317, cPEG3aCO-Pen(3)-N-T-7MeW-K(Ac)-Pen(3)-TMAPF-2Nal-THP-A-N-3Pya-Sar-CON(Me)2] ({Me3N+(CH2)2O(CH2)2O(CH2)2CO}-[Pen]NT[Trp(7-Me)]K(Ac)[Pen]Y(X3)[2Nal][Thp]AN[3Pal][Sar]-NMe2; disulfide 1-6), with 158 A^2.
As to `CC(=O)N(C)CCCC[C@@H]1NC(=O)[C@H](Cc2c[nH]c3c(C)cccc23)NC(=O)[C@H]([C@@H](C)O)NC(=O)[C@H](CC(=O)N(C)C)NC(=O)[C@@H](NC(=O)CCOCCOCC[N+](C)(C)C)C(C)(C)SSC(C)(C)[C@@H](C(=O)N[C@@H](Cc2ccc(OCCN(C)C)cc2)C(=O)N[C@@H](Cc2ccc3ccccc3c2)C(=O)NC2(C(=O)N[C@@H](CCCCN(C)C(C)=O)C(=O)N[C@@H](CC(N)=O)C(=O)N[C@@H](Cc3cccnc3)C(=O)N(C)CC(=O)N(C)C)CCOCC2)NC1=O` [compound 321, cPEG3aCO-Pen(3)-N(N(Me)2)-T-7MeW-K(NMeAc)-Pen(3)-AEF(N(Me)2)-2Nal-THP-K(NMeAc)-N-3Pya-Sar-CON(Me)2] ({Me3N+(CH2)2O(CH2)2O(CH2)2CO}-[Pen]D(NMe2)T[Trp(7-Me)][Lys(Me)](Ac)[Pen]Y(Me2NCH2CH2)[2Nal][Thp][Lys(Me)](Ac)N[3Pal][Sar]-NMe2; disulfide 1-6), the EPSA came to 153 A^2.
The result for `CC(=O)N(C)CCCC[C@H](NC(=O)C1(NC(=O)[C@H](Cc2ccc3ccccc3c2)NC(=O)[C@H](Cc2ccc(OCCCCC[N+](C)(C)C)cc2)NC(=O)[C@H]2NC(=O)[C@H](CCCC[N+](C)(C)C)NC(=O)[C@H](Cc3c[nH]c4c(C)cccc34)NC(=O)[C@H]([C@@H](C)O)NC(=O)[C@H](CC(=O)N(C)C)NC(=O)[C@@H](NC(=O)CCOCCOCC[N+](C)(C)C)C(C)(C)SSC2(C)C)CCOCC1)C(=O)N[C@@H](CC(N)=O)C(=O)N[C@@H](Cc1cccnc1)C(=O)N(C)CC(=O)N(C)C` [compound 329, cPEG3aCO-Pen(3)-N(N(Me)2)-T-7MeW-K(Me)3-Pen(3)-TMAPF-2Nal-THP-K(NMeAc)-N-3Pya-Sar-CON(Me)2] ({Me3N+(CH2)2O(CH2)2O(CH2)2CO}-[Pen]D(NMe2)T[Trp(7-Me)][Lys(Me3)][Pen]Y(X3)[2Nal][Thp][Lys(Me)](Ac)N[3Pal][Sar]-NMe2; disulfide 1-6) reads 155 A^2.
